Row | Compound | pKa
1 | Cc1nc(N)ncc1CNC(=O)Cn1c(C)ccc(NS(=O)(=O)Cc2cccc3c2OCCO3)c1=O | 4.2
2 | CC(C)Oc1ncc(-c2nc(-c3cccc4c3OCCNC4CCCC(=O)O)no2)cc1Cl (stereo not drawn) | 7.98
3 | Cn1ccnc1Br | 3.82
4 | Nc1nc2ccccc2[nH]1 | 7.5
5 | Fc1cccc(Cl)c1N=C1NCCN1 | 8.01
6 | c1ccc(Nc2c3ccccc3nc3ccccc23)nc1 | 6.32
7 | COc1cc(NS(C)(=O)=O)ccc1Nc1c2ccccc2nc2ncccc12 | 6.09
8 | CN(C)CCCN1c2cc(F)ccc2CCc2ccc(F)cc21.Cl | 7.6
9 | CN(C)CCC1(Cc2ccc(C(C)(C)C)cc2)COC1 | 9.2
10 | CSc1nccn1C | 5.95
11 | Cc1cnc(NCCc2ccccc2)c(=O)n1CC(=O)NC[C@@H]1CNC(N)=N[C@@H]1C | 14
12 | Cc1ccc(C(=O)c2ccc(CC(=O)O)n2C)cc1 | 3.5
13 | O=C(O)CCc1ccc(Nc2c3ccccc3nc3ccccc23)cc1 | 7.91
14 | Cc1ncc2n1-c1ccc(Cl)cc1C(c1ccccc1F)=NC2 | 5.44
15 | Cl.Fc1ccc2c(c1)N(CCCN1CCOCC1)c1cc(F)ccc1CC2 | 7.6
16 | O=C(Nc1noc2ccccc12)N1CCN(Cc2cccc(Oc3ccc(Cl)cc3)c2)CC1 | -4.7
17 | O=C(NCc1ccccc1)C1=CC2c3ccccc3C1c1ccccc12 | -2.01
18 | Cc1cnc(NCCc2ccccc2)c(=O)n1CC(=O)NCc1cnc(N)nc1 | 3.9
19 | O=[N+]([O-])c1ncc[nH]1 | 0.81
20 | Clc1cc(Cl)c(N=C2NCCN2)c(Cl)c1 | 7.75
21 | CC(C)(C)NC[C@H](O)COc1nsnc1N1CCOCC1 | 8.8
22 | CN(C)CC(F)(F)F | 4.8

Row | Compound | pKa
23 | COc1ccnc(C[S+]([O-])c2nc3cc(OC(F)F)ccc3[n-]2)c1OC.[Na+] (stereo not drawn) | 3.9
24 | COc1cccc2c(Nc3ccc(NS(C)(=O)=O)cc3)c3ccccc3nc12 | 7.15
25 | CNc1ccnc(N2CCc3ccccc3C2)c1 | 8.9
26 | CC1=CN(c2ccc(S(N)(=O)=O)cc2)C(C2C=CN(C)C=C2)N1 (stereo not drawn) | 7.26
27 | CS(=O)(=O)Nc1ccc(Nc2c3ccccc3nc3ccc([N+](=O)[O-])cc23)cc1 | 5.42
28 | Cc1ccccc1Nc1c2ccccc2nc2ccccc12 | 7.76
29 | Nc1cccc(Nc2c3ccccc3nc3ccccc23)c1 | 7.58
30 | CN(C)c1ccc(Nc2c3ccccc3nc3ccccc23)cc1 | 8.46
31 | Oc1nsc2c1CCNC2 | 8.5
32 | N[C@@H](CCC(=O)N[C@@H](CS)C(=O)NCC(=O)O)C(=O)O | 8.7
33 | Cc1cnc(NCC(F)(F)c2ccccc2)c(=O)n1CC(=O)NCc1cnc(N)cn1 | 2.7
34 | CN(C)CCCCc1ccc(C2COC2)cc1 | 9.9
35 | O=C(NCC1CCCCN1)c1cc(OCC(F)(F)F)ccc1OCC(F)(F)F (stereo not drawn) | 9.3
36 | CN1C=CC(C2NC(C(F)(F)F)=CN2c2ccc(S(N)(=O)=O)cc2)C=C1 (stereo not drawn) | 7.58
37 | COc1cc(NS(C)(=O)=O)ccc1Nc1c2ccccc2nc2c(C(N)=O)cccc12 | 6.37
38 | COc1ccc2c(c1)N(C[C@H](C)CN(C)C)c1ccccc1S2 | 9.19
39 | COc1cc(NS(C)(=O)=O)ccc1Nc1c2ccccc2nc2c(C(=O)NCC(N)=O)cccc12 | 6.18
40 | NC(N)=Nc1nc(CSCC/C(N)=N/S(N)(=O)=O)cs1 | 7.1
41 | CCCCCCCOC(=O)c1ccc(OS(N)(=O)=O)cc1 | 8.27
42 | Cc1cnc(NCC(F)(F)c2ccc(F)cc2)c(=O)n1CC(=O)NCc1cnc(N)cn1 | 2.7
43 | O=[PH](O)CCc1ccccc1 | 1.98
44 | c1nc[nH]n1 | 2.19

Row | Compound | pKa
45 | CCn1c(=O)c2nc(-c3ccc(S(=O)(=O)NCCN(C)C)cc3)[nH]c2n(CC)c1=O | 8
46 | CN(C)CCC=C1c2ccccc2C=Cc2ccccc21 | 9.69
47 | C[C@H](O)c1nccc(N2C[C@@H](C)N(c3ccnc([C@@H](C)O)n3)[C@@H](C)C2)n1 | 6
48 | COc1cc(NS(C)(=O)=O)ccc1Nc1c2ccccc2nc2c(OCCCC(N)=O)cccc12 | 7.36
49 | NS(=O)(=O)c1ccc(Nc2c3ccccc3nc3ccccc23)cc1 | 6.11
50 | COc1cc(NS(C)(=O)=O)ccc1Nc1c2ccccc2nc2cc([N+](=O)[O-])ccc12 | 5.72
51 | CC(C)n1c(/C=C/C(O)CC(O)CC(=O)O)c(-c2ccc(F)cc2)c2ccccc21 (stereo not drawn) | 4.31
52 | Cc1nc2c3c(ccn2c1CC#N)CCC(c1ccccc1)O3 (stereo not drawn) | 6
53 | Nc1ccc(CC(C(=O)O)N(CCN(CC(=O)O)CC(=O)O)CCN(CC(=O)O)CC(=O)O)cc1 (stereo not drawn) | 10.2
54 | CS(=O)(=O)Nc1ccc(Nc2c3ccccc3nc3c([N+](=O)[O-])cccc23)cc1 | 4.88
55 | CC(=O)Nc1ccc2c(Nc3ccc(NS(C)(=O)=O)cc3)c3ccccc3[nH+]c2c1.CS(=O)(=O)[O-] | 7.34
56 | Cc1cc(Cl)ccc1N=C1NCCN1 | 9.99
57 | Cc1nc2c(OCc3ccccc3)cccn2c1CC#N | 5.5
58 | CN(C)CC1C2c3ccccc3C(c3ccccc32)C1CN(C)C (stereo not drawn) | 9.19
59 | COc1cc(Nc2c3ccccc3nc3ccccc23)ccc1NS(C)(=O)=O | 7.03
60 | CS(=O)(=O)Nc1ccc(Nc2c3ccccc3nc3cc(S(C)(=O)=O)ccc23)cc1 | 5.65
61 | Brc1cc(Br)c(N=C2NCCN2)c(Br)c1 | 7.46
62 | CC(C)NCC(O)COc1ccc(COCCOC(C)C)cc1 (stereo not drawn) | 9.57
63 | COC(=O)C(c1ccccc1)C1CCCCN1 (stereo not drawn) | 9.24
64 | CNS(=O)(=O)Cc1ccc2[nH]cc(CCN(C)C)c2c1 | 9.5
65 | CN(C)CCCC1(c2ccc(C(C)(C)C)cc2)COC1 | 9.6
66 | O=C(c1nnc(-c2ccccc2)o1)N1CC(Oc2ccc(CN3CC4(COC4)C3)cc2)C1 | 8

Row | Compound | pKa
67 | Cc1cc(Cl)c(N=C2NCCN2)c(Cl)c1 | 8.29
68 | CCC12CCC(=O)C=C1c1c(cc(OCC(=O)OCC(=O)O)c(Cl)c1Cl)C2 (stereo not drawn) | 3.8
69 | CCCCNC(=O)c1cccc2c(Nc3ccc(NS(C)(=O)=O)cc3OC)c3ccccc3nc12 | 6.36
70 | COC(=O)Nc1ccccc1Nc1c2ccccc2nc2ccccc12 | 7.24
71 | CCCCCCS(=O)(=O)Nc1ccc(Nc2c3ccccc3nc3ccccc23)cc1 | 7.17
72 | Cc1cc(OCCN2CCOCC2)nn1-c1ccc2ccccc2c1 | 6.5
73 | CCC12CCC(=O)C=C1c1c(cc(OCC(=O)OC(C)(C)C(=O)O)c(Cl)c1Cl)C2 (stereo not drawn) | 3.8
74 | CC(C)NCC(O)COc1ccc(CCNC(=O)NC(C)C)cc1 (stereo not drawn) | 9.18
75 | Cc1cc(C)c(N=C2NCCN2)c(C)c1 | 10.8
76 | COc1cc(NS(C)(=O)=O)ccc1Nc1c2ccccc2nc2cc(F)ccc12 | 7.05
77 | CC(C)(C)NCC(O)COc1cccc2c1C[C@H](O)[C@H](O)C2 (stereo partly drawn) | 9.67
78 | Cc1cc(Cl)cc(Cl)c1N=C1NCCN1 | 9.03
79 | Cc1cccc(C)c1N=C1NCCN1 | 10.5
80 | CS(=O)(=O)Nc1ccc(Nc2c3ccccc3nc3ccccc23)c(Cl)c1 | 6.34
81 | CS(=O)(=O)Nc1ccc(Nc2c3ccccc3nc3ccc(N)cc23)cc1 | 7.15
82 | Cc1ccc(NS(=O)(=O)Cc2ccccc2)c(=O)n1CC(=O)NCc1nc(CN)cs1 | 7.4
83 | C/C(=N\N=C(/S)N/N=C(\S)Nc1ccccc1Cl)c1ccccn1 | 7.24
84 | O=S(=O)(Nc1ccc(Nc2c3ccccc3nc3ccccc23)cc1)c1ccccc1 | 7.09
85 | CNc1ccc(Nc2c3ccccc3nc3ccccc23)cc1 | 8.42
86 | CN(C)CCNC1=Nc2cccc3cccc(c23)N1 | 6
87 | Clc1ccccc1N=C1NCCN1 | 9.15
88 | CN(C)C(=O)Oc1cccc([N+](C)(C)C)c1 | 19.1
